Laboratory results taken from patent publication EP3167873A1, “AQUEOUS SOLUTION OF CONDENSATION PRODUCTS OF TAURINAMIDE AND METHYLENE GLYCOL FOR USE AS ANTI-INFECTIVE AGENT IN THE IMPLANTATION OF DEVICES IN CARDIAC SURGERY” (Weis, Christian Edwin, priority 2015, dated 2017).

Columns and labels:
ESKAPE Pathogene = settings: cited from earlier work
Infektionen [1] = assay: Clinical use in pacemaker/ICD implantation: device treated and pocket rinsed, infections observed after implantation; format: in vivo, Patienten
Excerpt: Bei der Verwendung wird üblicherweise so vorgegangen, dass die implantierbare Vorrichtung vor der Implantation für die zur Erzielung der gewünschten optimalen antimikrobiellen Wirkung und zur vollständigen Benetzung aller Oberflächen der Vorrichtung erforderliche Zeit, gemäß einer bevorzugten Praxis etwa 20 Minuten, in die Lösung eingelegt wird und danach die implantierbare Vorrichtung, z.B. das Gehäuse eines Herzschrittmachers, mit einem Film der wässrigen Lösung auf ihrer Oberfläche in die vom operierenden Chirurgen vorbereitete Tasche implantiert wird.
Die Tasche wird anschließend mit der restlichen Lösung (ca. 100 ml) gespült.
In einer kardiologischen Station eines akademischen Lehrkrankenhauses, in der routinemäßig und in großer Zahl Patienten Herzschrittmacher implantiert werden, gehörte es zur Praxis, zur Infektionsvermeidung die zu implantierenden Herzschrittmachergehäuse während der Implantation mit einer Lösung von Wasserstoffperoxid zu behandeln, wobei gleichzeitig eine Wundspülung mit Wasserstoffperoxid stattfindet. Dabei kommt es zur Freisetzung von Sauerstoff und starkem Aufschäumen. Trotz der bakteriziden Eigenschaften von verdünntem Wasserstoffperoxid ist die Wirkung der Behandlung als Infektionsprophylaxe bei der Implantation von Geräten nicht verifiziert. […]

[2] = tested on: VRE (Vancomycin-resistente Enterokokken); settings: cited from earlier work
Bakterien = settings: contact of the solution with microorganisms / contaminated surfaces; cited from earlier work
Biofilme = settings: cited from earlier work
[3] = tested on: MRSA (Methicillin-resistenter Staphylococcus aureus); settings: cited from earlier work
[4] = design: species or system Patienten; settings: in vivo
Excerpt: Schrittmacherimplantationen unter erfindungsgemäßer Verwendung einer 2,0 Gew.-%igen wässrigen Taurolidinlösung sind in der nachfolgenden Tabelle 1 tabellarisch erfasst. Die Tabelle gibt dabei die Befunde für 45 Implantationen, einschließlich von 9 Fällen des Austauschs eines Aggregats gegen ein neues, wieder, die im Zeitraum zwischen Februar und September 2015 erfolgten, wobei in allen Fällen die angegebene 2,0 Gew.-%ige wässrige Taurolidinlösung wie beschrieben zur Anwendung kam.

Infektionen [5] = settings: irrigation (wound rinsing); cited from earlier work

| Molecule | Wirksamkeit (ESKAPE Pathogene) | Infektion (Infektionen [1]; 45 implantations of Tabelle 1 (February to September 2015), 2,0 Gew.-% aqueous Taurolidin solution, observed up to filing date) | Infektionen (Infektionen [1]; pacemaker laid about 20 min in 2,0 Gew.-% Taurolidin solution before implantation, pocket rinsed with rest (ca. 100 ml), comparable number of implantations) | Wirksamkeit [2] | Kontaktdauer bis zur vollen antibakteriellen Wirkung (Bakterien) | Wirksamkeit gegen Biofilme (Biofilme) | Wirksamkeit [3] | Wundheilung [4] | Verbesserung der Infektionsrate (Infektionen [5]) |
| --- | --- | --- | --- | --- | --- | --- | --- | --- | --- |
| O=S1(=O)CCN(CN2CCS(=O)(=O)NC2)CN1 [Taurolidin] | voll wirksam | bei keinem einzigen der Patienten eine Infektion beobachtet | keinerlei Infektionen beobachtet | voll wirksam | ≥ 10 Minuten | wirksam | voll wirksam | gute, ungestörte Wundheilung | – |
| Povidon-Iod | – | – | – | – | – | – | – | – | keine nennenswerte Verbesserung beobachtet |
